Where two headings read alike, the source gives them in different places.
What was measured:
Format in all cases: cell-based
hKv7.2/3 = biological target: T1, hKv7.2/3 (Homo sapiens, UniProt O43525+O43526); experiment: Kv7.2/7.3 HCS, FLIPR potassium (thallium) assay, CHO/hKv7.2/3
T1 construct: host or cells: CHO
Experimental: (§1) Cell culture: Chinese hamster ovary (CHO) cell-line cells with a constitutive expression of human Kv7.2/3 channels (B'SYS GmbH, Switzerland) were cultured in F-12 nutrient mixture (Biological Industries) supplemented with 10% fetal bovine serum (Biological Industries) and 1% penicillin-streptomycin (Biological Industries) in a humidified 5% CO2 incubator at 37° C. To maintain the stability of human Kv7.2/7.3 expression antibiotic selection was added (Puromycin 5 μg/ml).
High content screen (HCS) using FLIPR Potassium Assay Kit: A FLIPR Potassium Assay Kit (R8222 FLIPR Potassium Assay Explorer Kits, Molecular Devices) was used with the CHO/hKv7.2/3 cell line to screen molecules against the hKv7.2/7.3 ion channel target. The assay exploits the permeability of thallium ions (Tl+) through potassium (K+) channels. In this assay, Tl+ indicator dye is used to produce a bright fluorescent signal upon the binding to Tl+ conducted through the potassium channels. The intensity of the Tl+ signal is proportional to the number of potassium channels in the open state. Therefore, it provides a functional indication of the potassium channel activity. To activate the voltage-gate potassium channels, the cells were stimulated with a mixture of K+ and Tl+ to depolarize the cell membrane. The fluorescence increase in the assay represents the influx of Tl+ into the cell specifically through the potassium channel, providing a functional read-out of hKv7.2/3 activity using a fluorescent plate reader coupled with injectors used to activate the channels.
According to optimization process to achieve uniform and consistent screening conditions the following protocol was established: Cells were seeded in 384-well, black-walled, clear-bottomed Greiner #781091, at a density of 5000 cells per well 24 hours before the assay conductance and incubated overnight in their normal growth medium. On the experiment day the medium was replaced with HBSS, HEPES, and the test compound/vehicle (0.2% DMSO). Dye solution (prepared according to the manufacturer) was added to the plates, which were incubated for 1.5 h light-protected in room temperature. Tecan Spark reader plate injectors were primed with Tl+(1 mM Tl2SO4) or Tl++K+(1 mM Tl2SO4; 5 mM K2SO4) for channel activation and data correction. […] To calculate EC50 values, the data was fitted to sigmoidal regression using Prism GraphPad. The fitting was constrained to a minimum of 1 and a maximal response of about 3.6 unless a different maximal response could be clearly identified.

rat DRG neurons [1] = experiment: Rat DRG neurons, current-evoked action potential firing; conditions: for Inhibition of current induced AP response: 100 nM
Text: (§2) rDRGs isolation and primary cell culture: Briefly, rat DRGs from all spinal levels were carefully removed and collected in HBSS on ices, connective tissue of the epineurium surrounding the ganglion was removed and cells were dissociated using Collagenase-II and trypsin dissociation solutions. DRGs were dissociated further, passed through glass Pasteur pipettes to obtain single cells. Then dissociation solution was changed to 5% FBS containing DRG neuronal culture medium and plated onto ECL coated 12 mm cover glass.
(§3) Additional rDRGs experiments were performed using Lonza primary neonatal rat (Sprague Dawley neonatal; P2,3) DRG neurons (R-DRG-505, Lonza) plated and cultured according to the manufacturer.
(§4) Electrophysiology: Cells were used for electrophysiological recording at least 48 hours following rDRG isolation or at least 5 days following cryopreserved rDRG thawing. Round small neurons (20-40 μm in diameter) were selected for electrophysiology recordings, to select for small nociceptive neurons that propagate pain sensation in vivo and that are expressing both Kv7.2/3 and TRPV1 targets. Membrane excitability was monitored using current clamp configuration of the whole-cell patch-clamp technique. Positive current steps of different amplitude were injected (400 ms) to induce spikes trains before and following compound application.

hERG = hERG (Homo sapiens, UniProt Q12809); experiment: hERG HCS, FLIPR potassium assay, CHO/hERG; set-up: host or cells: CHO; conditions: at highest concentration shown, Table 1
Sequence of hERG (Q12809 whole entry): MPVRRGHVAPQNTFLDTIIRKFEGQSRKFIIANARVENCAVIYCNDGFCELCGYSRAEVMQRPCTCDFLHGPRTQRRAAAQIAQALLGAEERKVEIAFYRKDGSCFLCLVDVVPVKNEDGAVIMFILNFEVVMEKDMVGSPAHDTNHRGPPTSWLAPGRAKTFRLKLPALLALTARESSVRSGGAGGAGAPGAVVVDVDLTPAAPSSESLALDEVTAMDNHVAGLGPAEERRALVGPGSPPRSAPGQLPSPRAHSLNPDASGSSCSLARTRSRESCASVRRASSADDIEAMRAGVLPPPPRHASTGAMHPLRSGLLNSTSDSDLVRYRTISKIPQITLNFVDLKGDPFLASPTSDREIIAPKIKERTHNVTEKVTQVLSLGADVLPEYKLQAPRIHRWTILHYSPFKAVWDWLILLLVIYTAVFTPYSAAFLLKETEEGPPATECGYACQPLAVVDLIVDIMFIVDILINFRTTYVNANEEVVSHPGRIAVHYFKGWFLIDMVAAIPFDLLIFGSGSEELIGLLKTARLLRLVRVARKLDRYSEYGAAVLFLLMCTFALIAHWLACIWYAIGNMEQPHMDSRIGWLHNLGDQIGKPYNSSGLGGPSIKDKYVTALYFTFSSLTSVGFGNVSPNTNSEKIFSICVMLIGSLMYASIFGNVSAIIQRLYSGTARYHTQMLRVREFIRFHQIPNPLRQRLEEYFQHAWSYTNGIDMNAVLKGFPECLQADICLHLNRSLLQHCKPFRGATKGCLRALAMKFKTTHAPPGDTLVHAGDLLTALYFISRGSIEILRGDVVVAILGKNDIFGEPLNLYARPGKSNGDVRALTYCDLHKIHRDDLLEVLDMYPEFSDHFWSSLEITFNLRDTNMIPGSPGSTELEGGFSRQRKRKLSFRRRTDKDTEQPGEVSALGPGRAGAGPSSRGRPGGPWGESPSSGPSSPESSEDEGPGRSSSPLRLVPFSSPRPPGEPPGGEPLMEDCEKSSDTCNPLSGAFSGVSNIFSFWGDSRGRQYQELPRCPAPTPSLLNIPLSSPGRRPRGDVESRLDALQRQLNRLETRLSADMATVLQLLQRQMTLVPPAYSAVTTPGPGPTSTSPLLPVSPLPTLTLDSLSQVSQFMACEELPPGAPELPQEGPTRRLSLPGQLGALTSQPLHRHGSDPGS
Experimental: as §1, with “hERG” for “Kv7.2/3”, “the hERG expression” for “the”, “the CHO cell line, antibiotics” for “human Kv7.2/7.3 expression antibiotic”, “selection (G418 […] and Hygromycin 500)” for “selection”, “applied.” for “added (Puromycin 5 μg/ml).”
FLIPR Potassium Assay Kit: The FLIPR Potassium Assay Kit (R8222 FLIPR Potassium Assay Explorer Kits, Molecular Devices) was used with CHO/hERG cell line, for screening compounds against the hERG ion-channel off-target, as detailed hereinabove.
According to optimization process, to achieve a uniform and consistent screening condition of molecules, the following protocol was established: Cells were seeded in 384-well, black-walled, clear-bottomed, at a density of 7,500 cells per well 24 hours before the assay conductance and incubated overnight in their normal growth medium. On the experiment day the medium was replaced with HBSS, HEPES, and the tested compound/vehicle (0.2% DMSO). Dye solution (prepared according to the manufacturer) was added to the wells and plates were incubated for 1.5 hour light-protected in room temperature. The Tecan Spark plate-reader injectors were primed with Tl+(1 mM Tl2SO4) or Tl++K+(1 mM Tl2SO4; 10 mM K2SO4) for channel activation and data correction. […]. To calculate IC50 values, the data was fitted to sigmoidal regression using Prism GraphPad.

rat DRG neurons [2] = experiment: Rat DRG neurons, capsaicin-evoked action potential firing; conditions: for Inhibition of capsaicin induced AP response: 100 nM
Text: as §2, §3, §4
To assess the potency of compounds using DRG neurons, the inhibitory potency for CAP-evoked action potential (AP) trains was measured. For this purpose, DRG membrane potential was continuously measured, and the following protocol was performed:
Cells were perfused with vehicle containing bath solution. After 30 seconds, CAP (1 μM) was applied for 6 seconds to activate TRPV1 and stimulate AP trains.
After 30 seconds of perfusion with bath solution containing only vehicle, perfusion was changed to a bath solution containing compound, and after 3 minutes of compound application, CAP (1 μM) was applied again for 6 seconds to activate TRPV1 and stimulate AP trains.
Cells perfusion was changed back to bath solution containing only vehicle and after 3 minutes of compound washout, CAP (1 μM) was applied again for 6 seconds to activate TRPV1 and stimulate AP trains.
To evaluate the drug/control response, the number of AP spikes induced by CAP following incubation with test compound was divided by the average number of control AP spikes induced without compound, before compound incubation, and following its washout.

hTRPV1 [3] = biological target: T2, hTRPV1 (Homo sapiens, UniProt Q8NER1); experiment: TRPV1 HCS, Fluo-8 calcium flux, capsaicin activation, CHO cells expressing hTRPV1
T2 construct: CDS of NM_080704.4, inserted into the multiple cloning site of pcDNA3.1(+); host or cells: CHO/hKv7.2/3
T2 sequence (Q8NER1 whole entry): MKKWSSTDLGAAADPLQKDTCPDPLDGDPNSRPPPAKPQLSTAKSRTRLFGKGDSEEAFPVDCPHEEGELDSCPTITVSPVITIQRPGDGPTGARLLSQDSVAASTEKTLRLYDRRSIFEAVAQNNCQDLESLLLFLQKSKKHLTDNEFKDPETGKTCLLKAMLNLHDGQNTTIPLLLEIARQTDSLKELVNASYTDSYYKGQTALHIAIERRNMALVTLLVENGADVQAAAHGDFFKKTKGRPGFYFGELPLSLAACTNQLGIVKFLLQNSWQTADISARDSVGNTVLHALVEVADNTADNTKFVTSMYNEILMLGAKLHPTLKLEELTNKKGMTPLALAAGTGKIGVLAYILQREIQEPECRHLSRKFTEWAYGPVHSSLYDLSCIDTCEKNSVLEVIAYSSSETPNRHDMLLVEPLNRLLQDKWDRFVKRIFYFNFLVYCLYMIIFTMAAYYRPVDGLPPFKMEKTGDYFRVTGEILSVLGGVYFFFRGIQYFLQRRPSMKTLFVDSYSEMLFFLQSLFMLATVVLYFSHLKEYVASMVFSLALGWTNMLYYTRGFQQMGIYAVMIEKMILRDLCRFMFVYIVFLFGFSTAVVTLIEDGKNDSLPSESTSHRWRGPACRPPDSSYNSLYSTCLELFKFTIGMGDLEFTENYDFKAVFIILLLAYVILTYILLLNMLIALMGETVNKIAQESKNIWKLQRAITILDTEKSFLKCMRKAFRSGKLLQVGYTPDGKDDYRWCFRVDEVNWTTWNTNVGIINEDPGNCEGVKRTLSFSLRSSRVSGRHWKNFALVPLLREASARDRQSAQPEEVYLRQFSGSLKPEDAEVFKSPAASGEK
Experimental: as §1, with “with” for “with a”, “hTRPV1” for “Kv7.2/3”, “stable expression” for “stability”, “hTRPV1,” for “human Kv7.2/7.3 expression”, “selection (G418 500 μg/ml)” for “selection”, “applied.” for “added (Puromycin 5 μg/ml).”
High content screen (HCS) using Fluo-8 No Wash Calcium flux Assay Kit: Fluo-8 No Wash Calcium Assay Kit (Abcam, ab112129) was used with CHO stably or transiently expressing TRPV1 to screen compounds against the hTRPV1 ion channel target. The cells were pre-loaded with Fluo-8AM which is membrane permeable. The AM groups of the Fluo-8AM were then being cleaved by intracellular esterase, trapping the Fluo8 in the cell. […] The relative fluorescence signal was calculated following background subtraction, comparing the fluorescence at each time point to its maximal level measured following Ionomycin application in the end.
According to optimization process to achieve uniform and consistent screening condition of molecules the following protocol was established: Cells were seeded in 384-well, black-walled, clear-bottomed, at a density of 5,000 cells per well 24 h before the assay conductance and incubated overnight in their normal growth medium. On the experiment day the medium was replaced in each well with HBSS, HEPES, and compound/vehicle (0.2% DMSO). Dye solution (prepared according to the manufacturer) was added to the wells and plates are incubated for 1.5 h light-protected in room temperature. The Tecan Spark plate reader injectors were then primed with capsaicin and Ionomycin for channel activation and data normalization, respectively. […] To calculate IC50 values, the data was fitted to sigmoidal regression line using Prism GraphPad. The fitting was constrained to a minimum of 0 and a maximal response of about 1 unless a different maximal response could be identified.

hTRPV1 [4] = biological target: T2, hTRPV1; experiment: hTRPV1 dual activity electrophysiology, CHO cells co-expressing hKv7.2/3 and hTRPV1; conditions: with hKv7.2/3 activation
Experimental: Cell culture and DNA transfection: CHO/hKv7.2/3 cells were transfected with hTRPV1 DNA constructs (CDS of NM_080704.4, inserted into the multiple cloning site of pcDNA3.1(+) between the Hind III and BamH I restriction site, Genscript). For CHO transfection, 1×10^6 cells were suspended in a reaction mix (Amaxa™ 4D-Nucleofector™-LONZA) containing 5 μg of hTRPV1 DNA and 0.5 μg of GFP DNA (for cells selection) in a cuvette.
The cells were transformed (Amaxa, DT-133 program for CHO transfection with p-3 Kit) and recovered for 10 minutes at RT in the hood. Then cells were re-suspended in a 10 mL antibiotic (Ab)-free medium suspension and were plated on Gelatin or PLL-coated cover glass in different cell densities. On the next morning, the medium was changed to full medium containing the CHO/hKv7.2/3 cell line selection antibiotics.
Extracellular (Bath) solution: The solution was composed of (in mM): NaCl, 140; KCl, 4; CaCl2, 1.8; MgCl2, 1.2; Glucose, 11; HEPES, 5.5. pH was adjusted to 7.3 with NaOH. Osmolarity was adjusted to 310 mOsm with Sucrose.
Intracellular (Pipette) solution: Pipettes were pulled from borosilicate glass (Warner Instrument Corp, USA) with a resistance of 3-7 MΩ and were filled with internal solution composed of (in mM): KCl, 130; MgCl2, 1; K ATP, 5; EGTA, 5; HEPES, 10. pH was adjusted to 7.3 with KOH. Osmolarity was adjusted to 290 mOsm with Sucrose.
A programmable valve-linked pressurized perfusion system was used for local application of compounds nearby the cell recorded in a consistent flow rate of 2-3 mL/minute. Series resistance was corrected and data were sampled at 5 kHz and low pass filtered at 2.4 kHz using MultiClamp 700B amplifier with pCLAMP11 software (Molecular Devices, USA).
At least 48 hours following cell transfection and plating, cells were recorded to assess the TRPV1 dual activity. Membrane potential was held at −90 mV. To measure the inhibitory effects of the tested compounds on hTRPV1 dual activity the following protocol was performed:
Cells were perfused with vehicle-only containing bath solution. After 30 seconds, a single −40 mV 1.5 second step was applied for Kv7.2/3 activation and 30 seconds later capsaicin (1 μM) was applied for 6 seconds to activate the TRPV1.
Cells perfusion was changed to a compound-containing bath solution, and after 2 minutes and 30 seconds of compound application, a single −40 mV 1.5 second step was applied for Kv7.2/3 activation and 30 seconds later capsaicin (1 μM) was applied for 6 seconds to activate the TRPV1.
Cells perfusion was thereafter changed back to vehicle only-containing bath solution. After 30 seconds, a single −40 mV 1.5 step was applied for Kv7.2/3 activation and 30 seconds later capsaicin (1 μM) was applied for 6 seconds to activate the TRPV1 followed by a capsaicin wash out.
The drug current response, when capsaicin was injected following 3 minutes of pre-incubation with the test compound, was divided by the averaged control currents, induced without compound, before compound incubation and following its washout, to evaluate the drug/control response.

CHO-K1 cells = experiment: In vitro micronucleus; conditions: Plate 3 without S9, 24 hours
Experimental: The micronucleus assay was performed according to the regulatory guidelines. In brief, CHO-K1 cells were plated at 10000 cells/well in 3 plates and incubated In CHO-K1 growth medium (containing F12K, 10% FBS and 1% PS) overnight.
As a control for the S9 treatment, plate No. 1, cells were treated with cyclophosphamide as a positive control, for 3 hours. For plate No. 2, without S9 treatment, cells were treated with mitomycin C as a positive control, compounds for 3 hours, and for plate No. 3, without S9 treatment, cells were treated with bleomycin sulfate as a positive control continuously for 24 hours.
On the following day, 6 μg/mL of cytochalasin B were added to each well and plates were further incubated overnight. In the day after medium was replaced with a combined 10 μg/mL Hoechst dye solution and 0.5 μM calcein-AM in 100 μL warm DPBS for 30 minutes and the plates were scanned using CQ1 high-content analysis system.

T1 sequence (O43525 whole entry): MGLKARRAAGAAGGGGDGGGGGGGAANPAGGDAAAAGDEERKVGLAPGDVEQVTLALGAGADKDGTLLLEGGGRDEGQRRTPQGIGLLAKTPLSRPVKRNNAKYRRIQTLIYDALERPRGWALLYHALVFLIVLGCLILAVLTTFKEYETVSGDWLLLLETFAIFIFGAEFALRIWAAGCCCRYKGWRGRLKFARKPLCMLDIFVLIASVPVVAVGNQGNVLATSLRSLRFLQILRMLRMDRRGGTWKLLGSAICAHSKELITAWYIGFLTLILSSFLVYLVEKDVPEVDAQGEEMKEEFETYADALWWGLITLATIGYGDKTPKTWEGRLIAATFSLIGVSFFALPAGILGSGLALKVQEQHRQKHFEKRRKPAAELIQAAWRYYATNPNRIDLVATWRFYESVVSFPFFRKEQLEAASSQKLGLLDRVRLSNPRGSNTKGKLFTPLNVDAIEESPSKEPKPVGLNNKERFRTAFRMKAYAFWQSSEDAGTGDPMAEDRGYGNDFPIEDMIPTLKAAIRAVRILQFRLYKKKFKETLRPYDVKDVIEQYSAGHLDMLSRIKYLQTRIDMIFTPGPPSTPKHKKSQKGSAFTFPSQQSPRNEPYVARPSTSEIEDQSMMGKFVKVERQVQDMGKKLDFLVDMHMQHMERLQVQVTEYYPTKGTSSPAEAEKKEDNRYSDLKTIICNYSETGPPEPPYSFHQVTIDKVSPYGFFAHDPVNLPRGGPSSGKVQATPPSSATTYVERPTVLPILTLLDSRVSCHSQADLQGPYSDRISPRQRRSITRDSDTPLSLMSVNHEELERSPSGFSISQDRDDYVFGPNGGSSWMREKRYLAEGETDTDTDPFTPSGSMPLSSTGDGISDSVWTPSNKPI
T1 sequence (O43526 whole entry): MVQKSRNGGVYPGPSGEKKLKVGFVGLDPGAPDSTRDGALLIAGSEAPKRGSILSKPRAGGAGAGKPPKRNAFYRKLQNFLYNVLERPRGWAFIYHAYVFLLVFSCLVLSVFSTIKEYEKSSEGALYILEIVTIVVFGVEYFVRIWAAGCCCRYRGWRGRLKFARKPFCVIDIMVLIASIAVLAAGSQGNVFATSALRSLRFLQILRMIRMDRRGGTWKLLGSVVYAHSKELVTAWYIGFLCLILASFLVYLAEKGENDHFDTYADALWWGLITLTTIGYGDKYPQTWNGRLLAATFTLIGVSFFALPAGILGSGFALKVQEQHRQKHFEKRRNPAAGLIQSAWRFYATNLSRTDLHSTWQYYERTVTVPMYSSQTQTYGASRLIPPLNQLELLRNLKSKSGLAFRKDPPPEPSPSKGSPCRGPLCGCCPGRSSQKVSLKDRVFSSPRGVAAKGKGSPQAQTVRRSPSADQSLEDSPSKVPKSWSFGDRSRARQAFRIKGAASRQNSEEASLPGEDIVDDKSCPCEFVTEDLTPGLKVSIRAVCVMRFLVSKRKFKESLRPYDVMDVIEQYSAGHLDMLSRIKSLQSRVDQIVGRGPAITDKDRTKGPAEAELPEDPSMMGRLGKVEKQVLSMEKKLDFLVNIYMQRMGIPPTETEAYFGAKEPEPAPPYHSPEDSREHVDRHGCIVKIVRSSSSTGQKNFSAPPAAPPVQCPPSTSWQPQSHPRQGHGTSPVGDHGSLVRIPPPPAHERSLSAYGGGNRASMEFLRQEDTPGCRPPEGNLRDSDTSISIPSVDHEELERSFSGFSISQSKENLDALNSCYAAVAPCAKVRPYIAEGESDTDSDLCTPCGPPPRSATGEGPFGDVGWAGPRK

Molecule: CC(C)c1cc(Cl)cc(Cl)c1C(O)c1ccc(F)c(CC(=O)NCC2(O)CCC2)c1 (racemic) [Compound 533 racemic]
- EC50 (hKv7.2/3; Table 1, read-out: Kv7.2/7.3 IC50): 1500 nM
- Inhibition of current induced AP response (rat DRG neurons [1]): reduced current induced AP inhibition
- hERG IC50 (inhibition in parentheses) (hERG): 0%
- Inhibition of capsaicin induced AP response (rat DRG neurons [2]): highly potentiating capsaicin induced AP inhibition

Molecule: CC(C)c1cc(Cl)cc(Cl)c1C(O)c1ccc(F)c(CC(=O)NCC2(O)CCC2)c1 (single isomer, unassigned) [Compound 533p2]
- Kv7.2/3 activation (words) (hKv7.2/3): higher
- Kv7.2/3 activation (words) (hKv7.2/3; listed as 533P2): more potent activation of Kv7.2/3
- Inhibition of current induced AP response (rat DRG neurons [1]; 0.1 µM): inhibits the current-evoked rat DRGs spiking
- Inhibition of current induced AP response (rat DRG neurons [1]; listed as 533P2, 0.1 µM): inhibits current induced AP
- TRPV1 modulation (words) (hTRPV1 [3]): activates hTRPV1
- TRPV1 modulation (words) (hTRPV1 [3]; listed as 533P2): activating TRPV1
- Inhibition of capsaicin induced AP response (rat DRG neurons [2]; 0.1 µM): facilitated
- Inhibition of capsaicin induced AP response (rat DRG neurons [2]; listed as 533P2, 0.1 µM): potentiates capsaicin induced AP

Molecule: CC(C)(C)c1ccc(/C=C/C(=O)Nc2ccc3c(c2)OCCO3)cc1 [AMG9810, reference compound]
- hTRPV1 inhibition potency, Kv7.2/3 co-expressed and activated (hTRPV1 [4]): failure to gain TRPV1-inhibition potency
- Current evoked response (rat DRG neurons [1]; 50 nM): remains unchanged
- Inhibition of capsaicin evoked firing (rat DRG neurons [2]; 50 nM): about 50%

Molecule: Bleomycin sulfate [reference compound]
- Micronucleus response Absolute MEC (CHO-K1 cells): >28 µM
- CC50 (CHO-K1 cells; read-out: Cytotoxicity (%) Absolute EC50): 1590 nM

Reference: patent US20260327211A1, “MODULATORS OF A POTASSIUM CHANNEL AND OF TRPV1 CHANNEL AND USES THEREOF” (Bsense Bio Therapeutics Ltd., priority 2023, published 2026)
